# Tests used:
# [1] = tested on: TGF-β, PDGFR and STAT3 pathways in LX2 cells; experiment: Western blot of signalling proteins in LX2 cells; type: cell-based, human
# Protocol: Rat immortal hepatic stellate cell line HSC-T6 and LX2 human hepatic stellate cell line were provided by Professor Scott Friedman of Mount Sinai Hospital in New York, USA. The primary mouse HSCs were obtained via the way: after intubating the hepatic portal vein of the mouse, the cells were perfused with […] and ethylene glycol bis-aminoethyl ether tetraacetic acid (EGTA) buffer in situ, and then collagenase was injected to digest the liver tissue, and then the primary mouse HSCs were isolated by Histodnz gradient. HSC-T6 cells were cultured in Waymouth medium; LX2 cells and primary mouse HSCs were cultured in Dulbecco's Modified Eagle Medium (DMEM) containing 10% fetal bovine serum (FBS), 100 μg/mL penicillin, 100 μg/mL streptomycin, and 2 mM L-glutamine HSC-T6 cells, LX2 cells and primary mouse HSCs were cultured in a humidified incubator containing 5% carbon dioxide at 37° C. After adding the FBS, the resting HSC is started. […] Whole-cell extracts were obtained via RIPA buffer (Millipore, USA) and protein concentrations were quantified via a BCA protein assay kit (Thermo Fisher Scientific, USA). 20 or 25 μg of protein was added to various percentages of SDS-sodium dodecyl sulfate-acrylamide gel and blotted onto a polyvinylidene fluoride (PVDF) membrane. […] Proteins were detected by Immobilon Western Chemiluminescent HRP substrate (Millipore, USA) or ECL detection system (UVP Corporation, USA). […] Plasmids encoding the human wild-type SHP-1 and SHP-1 mutant, in which the N-SH2 domain was […] was changed into an […]) were cloned into the pCMV6-entry vector with myc-tag. These mutants were confirmed through DNA sequencing. […] (Chicago, Ill., USA).
# HSC-T6 cells = experiment: Apoptosis (Annexin V / propidium iodide flow cytometry), HSC-T6 cells; type: cell-based, rat
# Protocol: (§1) Rat immortal hepatic stellate cell line HSC-T6 and LX2 human hepatic stellate cell line were provided by Professor Scott Friedman of Mount Sinai Hospital in New York, USA. The primary mouse HSCs were obtained via the way: after intubating the hepatic portal vein of the mouse, the cells were perfused with Leffert's and ethylene glycol bis-aminoethyl ether tetraacetic acid (EGTA) buffer in situ, and then collagenase was injected to digest the liver tissue, and then the primary mouse HSCs were isolated by Histodnz gradient. […]
# HSC-T6 cells, LX2 cells or primary mouse HSCs cells were seeded in 96-well plates (5,000 cells/well) for 24 hours, and the cells were treated with various concentrations of 1-[4-chloro-3-(trifluoromethyl)phenyl]-3-[3-(4-cyanophenoxy)phenyl]urea or Sorafenib for 24 or 48 hours. The effect of each reagent on the cell viability and the cell were evaluated by CellTiter 96 AQueous one solution of 3-(4,5-dimethylthiazol-2-yl)-5-(3-carboxymethoxyphenyl)-2-(4-sulfophenyl)-2H-tetra zolium, an inner, MTS (Promega, USA). […] The proportion of apoptotic cells was mixed the early (Annexin V+/PI−) and the late (Annexin V+/PI+) apoptotic cells measured by BD FACS Verse flow cytometry (BD, USA). […]
# [2] = tested on: p-STAT3 in mouse fibroblasts (NIH3T3 cell line); experiment: Western blot of p-STAT3 in NIH3T3 fibroblasts; type: cell-based; details: FIG. 7B
# Protocol: Murine NIH3T3 fibroblasts and human lung epithelial cells (A549 cells) were purchased from the Bioresource Collection and Research Center (Hsinchu, Taiwan). Cells were cultured in Dulbecco's modified eagle medium (DMEM) containing 10% fetal bovine serum (FBS), 100 μg/mL penicillin, 100 μg/mL streptomycin. Cells were cultured at 37° C. in a humidified atmosphere of 5% CO2 and passaged every 4 to 5 days at 1:4 ratios.
# Whole-cell extracts were obtained via RIPA buffer (Millipore, USA) and protein concentrations were quantified via a BCA protein assay kit (Thermo Fisher Scientific, USA). 20 or 25 μg of protein was added to various percentages of SDS-sodium dodecyl sulfate-acrylamide gel and blotted onto a polyvinylidene fluoride (PVDF) membrane. The membrane was then reacted with a primary antibody; after extensive washing, the membrane was reacted with a […] containing a second antibody. Proteins were detected by Immobilon Western Chemiluminescent HRP substrate (Millipore, USA) or ECL detection system (UVP Corporation, USA).
# Antibodies for immunoblotting techniques such as anti-E-cadherin, anti-Fibronectin, anti-N-cadherin were purchased from Abcam (UK). […]
# primary mouse HSCs = experiment: Cell viability (MTS), primary mouse HSCs; type: cell-based; details: 24 or 48 hours; FIG. 14A
# Protocol: as §1
# HSC-T6 cells, LX2 cells or primary mouse HSCs cells were seeded in 96-well plates (5,000 cells/well) for 24 hours, and the cells were treated with various concentrations of 1-[4-chloro-3-(trifluoromethyl)phenyl]-3-[3-(4-cyanophenoxy)phenyl]urea or Sorafenib for 24 or 48 hours. The effect of each reagent on the cell viability and the cell were evaluated by CellTiter 96 AQueous one solution of 3-(4,5-dimethylthiazol-2-yl)-5-(3-carboxymethoxyphenyl)-2-(4-sulfophenyl)-2H-tetra zolium, an inner, MTS (Promega, USA). […] The proportion of apoptotic cells was mixed the early (Annexin V+/PI−) and the late (Annexin V+/PI+) apoptotic cells measured by BD FACS Verse flow cytometry (BD, USA).
# SHP-1 = target: T1, SHP-1 (Rattus norvegicus, UniProt P81718); experiment: SHP-1 phosphatase activity, HSC-T6 cells; type: cell-based; details: sorafenib 5 μM, compound 2.5 or 5 μM, FIG. 16C
# T1 construct: endogenous in cells; host or cells: HSC-T6 cells
# T1 sequence (P81718 whole entry): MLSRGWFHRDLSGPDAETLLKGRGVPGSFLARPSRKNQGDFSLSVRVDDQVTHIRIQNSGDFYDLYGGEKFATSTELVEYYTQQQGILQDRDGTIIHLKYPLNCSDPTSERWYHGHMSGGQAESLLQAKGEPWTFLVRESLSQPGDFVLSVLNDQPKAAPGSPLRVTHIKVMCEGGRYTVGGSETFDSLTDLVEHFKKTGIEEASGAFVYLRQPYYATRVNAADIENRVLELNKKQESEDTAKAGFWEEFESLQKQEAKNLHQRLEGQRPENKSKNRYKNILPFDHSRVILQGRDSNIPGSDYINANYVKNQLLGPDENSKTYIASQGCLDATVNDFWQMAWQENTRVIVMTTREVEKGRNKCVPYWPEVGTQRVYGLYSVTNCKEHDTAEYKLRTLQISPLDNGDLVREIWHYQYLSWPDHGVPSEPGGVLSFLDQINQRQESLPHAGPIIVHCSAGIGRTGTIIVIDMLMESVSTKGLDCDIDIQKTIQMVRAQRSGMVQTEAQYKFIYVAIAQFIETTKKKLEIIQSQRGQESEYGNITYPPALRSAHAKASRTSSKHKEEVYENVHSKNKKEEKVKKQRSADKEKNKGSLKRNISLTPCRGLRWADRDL
smiles,measurement,setting,value
N#Cc1ccc(Oc2cccc(NC(=O)Nc3ccc(Cl)c(C(F)(F)F)c3)c2)cc1 [1-[4-chloro-3-(trifluoromethyl)phenyl]-3-[3-(4-cyanophenoxy)phenyl]urea],"p-STAT3, ectopic expression of the vector control and wild-type SHP-1","[1]; 5 μM, 24 hours, FIG. 17D, 17E",downregulated
same,p-PDGFR and p-Akt in the PDGFR pathway,"[1]; 10 μM for 4 hours, then PDGF-BB 100 ng/mL 10 minutes, FIG. 14E",downregulated
same,p-Smad2 and p-Smad3 of the TGF-β pathway,"[1]; 10 μM for 4 hours, then TGF-β1 10 ng/mL 20 minutes, FIG. 14D",downregulated
same,"downregulation of p-STAT3 and cyclin D1, compared with sorafenib",[1]; FIG. 15A,more significant dose-escalation effects on the downregulation
same,HSC apoptosis,"HSC-T6 cells; HSC-T6, 24 hours, compared with sorafenib, FIG. 14B",significantly increased HSC apoptosis in a dose-dependent manner
same,compound-induced apoptosis in STAT3-overexpressing HSCs,"HSC-T6 cells; rat STAT3 stable overexpression clone, FIG. 15C",significantly abolished
same,expression level of p-STAT3,[2],reduced
same,viability of primary mouse HSCs,primary mouse HSCs,dose- and time-dependent effects to reduce the viability
same,SHP-1 activity,SHP-1,significantly increased the SHP-1 activity at a lower concentration
